Paper PMC2951742 (ChemMedChem, 2010)
Like-named read-outs stand apart in the source and are kept apart here.

Experiments:
[1] = Microsomal stability, rat microsomes; type: in vitro ADME; settings: 1h assay
animals = assay: Adverse side effects in animals; settings: in vivo
[2] = test system: PCP-disrupted PPI in mice; assay: Normalization of PCP-disrupted prepulse inhibition; type: in vivo; settings: 6 mg/kg PCP ip
hERG = hERG (Homo sapiens, UniProt Q12809); assay: hERG assay; settings: for hERG inhibition: result in words
Sequence of hERG (Q12809 whole entry): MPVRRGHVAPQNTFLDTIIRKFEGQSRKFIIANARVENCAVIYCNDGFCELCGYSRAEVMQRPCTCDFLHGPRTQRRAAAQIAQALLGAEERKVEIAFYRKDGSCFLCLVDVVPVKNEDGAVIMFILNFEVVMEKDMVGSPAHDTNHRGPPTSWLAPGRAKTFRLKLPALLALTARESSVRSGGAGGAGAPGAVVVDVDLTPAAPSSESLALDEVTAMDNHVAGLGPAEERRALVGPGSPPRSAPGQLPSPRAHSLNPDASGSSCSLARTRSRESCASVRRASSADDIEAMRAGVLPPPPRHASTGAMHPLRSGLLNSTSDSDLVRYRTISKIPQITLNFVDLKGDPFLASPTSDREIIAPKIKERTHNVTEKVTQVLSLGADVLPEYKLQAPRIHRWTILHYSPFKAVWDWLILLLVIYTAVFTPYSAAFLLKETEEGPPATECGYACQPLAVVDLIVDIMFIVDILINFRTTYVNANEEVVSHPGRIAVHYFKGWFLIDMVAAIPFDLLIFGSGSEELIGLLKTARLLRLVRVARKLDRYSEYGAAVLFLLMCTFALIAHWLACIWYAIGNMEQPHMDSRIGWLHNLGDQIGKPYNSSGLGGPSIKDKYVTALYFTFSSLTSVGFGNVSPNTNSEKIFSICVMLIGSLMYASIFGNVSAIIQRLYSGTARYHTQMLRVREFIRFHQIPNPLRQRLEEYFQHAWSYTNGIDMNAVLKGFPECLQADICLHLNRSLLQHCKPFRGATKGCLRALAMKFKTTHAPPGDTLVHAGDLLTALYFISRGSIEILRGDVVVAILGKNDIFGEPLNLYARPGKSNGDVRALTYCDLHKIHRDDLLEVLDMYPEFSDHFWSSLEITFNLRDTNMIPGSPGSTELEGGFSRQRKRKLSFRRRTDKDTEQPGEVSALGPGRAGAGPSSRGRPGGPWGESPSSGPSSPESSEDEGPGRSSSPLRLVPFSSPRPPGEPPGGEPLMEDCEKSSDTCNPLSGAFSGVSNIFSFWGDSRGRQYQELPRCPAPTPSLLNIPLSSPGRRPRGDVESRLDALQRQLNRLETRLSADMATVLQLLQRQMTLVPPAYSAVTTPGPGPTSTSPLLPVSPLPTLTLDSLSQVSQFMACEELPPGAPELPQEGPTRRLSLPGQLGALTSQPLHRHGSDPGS

CYP2C9 = CYP2C9 (Homo sapiens, UniProt P11712); assay: Recombinant CYP inhibition test, CYP2C9; type: in vitro ADME; settings: at 10 μM
Sequence of CYP2C9 (P11712 whole entry): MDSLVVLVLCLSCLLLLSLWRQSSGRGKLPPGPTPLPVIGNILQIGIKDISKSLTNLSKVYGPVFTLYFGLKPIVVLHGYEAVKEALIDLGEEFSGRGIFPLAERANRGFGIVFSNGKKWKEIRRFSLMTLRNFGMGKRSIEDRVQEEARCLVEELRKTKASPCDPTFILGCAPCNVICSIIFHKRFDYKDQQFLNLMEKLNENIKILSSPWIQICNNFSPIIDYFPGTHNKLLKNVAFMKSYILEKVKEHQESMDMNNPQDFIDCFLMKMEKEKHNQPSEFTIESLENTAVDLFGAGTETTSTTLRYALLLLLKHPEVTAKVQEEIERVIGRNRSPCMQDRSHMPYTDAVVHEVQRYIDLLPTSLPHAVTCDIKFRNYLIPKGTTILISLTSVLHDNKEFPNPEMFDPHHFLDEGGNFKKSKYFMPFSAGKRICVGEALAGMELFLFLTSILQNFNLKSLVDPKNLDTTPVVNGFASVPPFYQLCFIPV

CYP3A4 = CYP3A4 (Homo sapiens, UniProt P08684); assay: Recombinant CYP inhibition test, CYP3A4; type: in vitro ADME; settings: at 10 μM
Sequence of CYP3A4 (P08684 whole entry): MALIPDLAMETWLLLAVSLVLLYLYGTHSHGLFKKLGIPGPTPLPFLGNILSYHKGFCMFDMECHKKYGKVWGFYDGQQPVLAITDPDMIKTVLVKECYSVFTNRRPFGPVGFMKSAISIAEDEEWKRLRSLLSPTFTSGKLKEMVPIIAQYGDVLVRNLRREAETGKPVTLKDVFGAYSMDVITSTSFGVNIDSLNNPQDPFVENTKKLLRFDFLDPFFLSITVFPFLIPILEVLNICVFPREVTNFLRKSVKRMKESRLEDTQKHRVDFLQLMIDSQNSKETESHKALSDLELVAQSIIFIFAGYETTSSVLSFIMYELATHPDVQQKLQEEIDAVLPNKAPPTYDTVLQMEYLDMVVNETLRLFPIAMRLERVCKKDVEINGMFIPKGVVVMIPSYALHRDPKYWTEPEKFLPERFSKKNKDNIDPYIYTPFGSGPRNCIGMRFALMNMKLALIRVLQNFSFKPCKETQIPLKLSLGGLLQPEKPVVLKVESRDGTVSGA

CYP2D6 = CYP2D6 (Homo sapiens, UniProt P10635); assay: Recombinant CYP inhibition test, CYP2D6; type: in vitro ADME; settings: at 10 μM
Sequence of CYP2D6 (P10635 whole entry): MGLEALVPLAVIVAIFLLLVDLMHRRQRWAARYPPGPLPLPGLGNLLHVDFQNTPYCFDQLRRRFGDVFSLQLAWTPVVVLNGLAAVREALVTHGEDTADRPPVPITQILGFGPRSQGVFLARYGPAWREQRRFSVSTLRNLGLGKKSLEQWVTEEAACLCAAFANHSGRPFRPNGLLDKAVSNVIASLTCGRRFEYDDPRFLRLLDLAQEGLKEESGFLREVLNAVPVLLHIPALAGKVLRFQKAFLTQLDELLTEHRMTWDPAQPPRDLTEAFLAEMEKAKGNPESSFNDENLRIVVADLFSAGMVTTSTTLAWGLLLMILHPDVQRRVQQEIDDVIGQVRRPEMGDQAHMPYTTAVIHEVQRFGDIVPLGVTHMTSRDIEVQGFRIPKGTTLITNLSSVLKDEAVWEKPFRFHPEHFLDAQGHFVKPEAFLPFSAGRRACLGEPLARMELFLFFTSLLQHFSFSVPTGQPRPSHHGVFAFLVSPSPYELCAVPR

[3] = Microsomal stability, human microsomes; type: in vitro ADME; settings: 1h assay
human 5-HT2B receptor = human 5-HT2B receptor (Homo sapiens, UniProt P41595); assay: Calcium flux; type: cell-based; settings: for 5-HT2B %MAX ± SEM: percent of maximal activation by 5-HT, activation at 10 μM for compounds without EC50 value
Sequence of human 5-HT2B receptor (P41595 whole entry): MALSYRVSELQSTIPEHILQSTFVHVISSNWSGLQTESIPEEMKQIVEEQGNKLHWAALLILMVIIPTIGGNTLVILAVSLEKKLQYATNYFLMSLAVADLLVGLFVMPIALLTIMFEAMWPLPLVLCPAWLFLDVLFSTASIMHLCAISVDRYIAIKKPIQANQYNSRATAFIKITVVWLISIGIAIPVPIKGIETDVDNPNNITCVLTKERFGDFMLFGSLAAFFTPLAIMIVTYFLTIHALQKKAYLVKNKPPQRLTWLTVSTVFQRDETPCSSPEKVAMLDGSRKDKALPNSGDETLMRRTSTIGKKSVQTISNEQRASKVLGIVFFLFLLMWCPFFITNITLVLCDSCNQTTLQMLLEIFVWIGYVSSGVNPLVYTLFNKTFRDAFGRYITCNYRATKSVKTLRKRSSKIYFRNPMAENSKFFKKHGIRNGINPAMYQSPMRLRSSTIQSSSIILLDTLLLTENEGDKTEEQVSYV

human 5-HT2A receptor = human 5-HT2A receptor (Homo sapiens, UniProt P28223); assay: Calcium flux; type: cell-based; settings: for 5-HT2A %MAX ± SEM: percent of maximal activation by 5-HT, activation at 10 μM for compounds without EC50 value; for 5-HT2A EC50 ± SEM: HEK-293, calcium flux
Sequence of human 5-HT2A receptor (P28223 whole entry): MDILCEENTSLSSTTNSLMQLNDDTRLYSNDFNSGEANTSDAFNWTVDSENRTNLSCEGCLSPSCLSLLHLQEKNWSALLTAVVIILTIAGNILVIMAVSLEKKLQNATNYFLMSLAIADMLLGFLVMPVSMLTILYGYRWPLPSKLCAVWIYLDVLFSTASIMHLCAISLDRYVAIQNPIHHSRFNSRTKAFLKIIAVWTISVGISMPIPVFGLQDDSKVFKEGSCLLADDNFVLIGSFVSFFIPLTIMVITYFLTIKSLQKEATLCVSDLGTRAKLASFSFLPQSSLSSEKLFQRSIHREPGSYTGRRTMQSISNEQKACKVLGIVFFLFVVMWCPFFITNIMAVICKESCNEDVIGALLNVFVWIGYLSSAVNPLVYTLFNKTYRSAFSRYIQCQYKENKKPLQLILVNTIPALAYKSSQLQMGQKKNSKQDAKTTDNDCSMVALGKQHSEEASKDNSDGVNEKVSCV

[4] = target: T1, human 5-HT2C (INI) receptor (Homo sapiens, UniProt P28335); assay: Calcium flux; type: cell-based; settings: for 5-HT2C %MAX ± SEM: percent of maximal activation by 5-HT; for Selectivity 2A/2C / Selectivity 2B/2C: ratio of EC50 values
T1 sequence (P28335 33-458): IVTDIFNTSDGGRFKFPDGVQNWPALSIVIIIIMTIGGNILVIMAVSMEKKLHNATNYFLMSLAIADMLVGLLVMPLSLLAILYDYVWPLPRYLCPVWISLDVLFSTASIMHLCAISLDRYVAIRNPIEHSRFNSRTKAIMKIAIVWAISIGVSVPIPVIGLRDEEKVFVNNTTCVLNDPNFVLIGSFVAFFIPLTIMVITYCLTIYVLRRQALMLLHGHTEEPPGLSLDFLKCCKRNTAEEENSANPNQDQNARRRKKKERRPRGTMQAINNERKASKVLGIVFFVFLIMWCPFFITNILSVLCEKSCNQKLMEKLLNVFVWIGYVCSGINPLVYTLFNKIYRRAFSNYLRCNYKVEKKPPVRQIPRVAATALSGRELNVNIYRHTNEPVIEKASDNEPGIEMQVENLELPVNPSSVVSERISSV

[5] = test system: PCP-disrupted PPI in mice; settings: identical PPI testing paradigm, earlier work; cited from earlier work

NCC1CC1c1cc(F)ccc1OCC1CC1 (single isomer, unassigned; (+)) [(+)-12, trans-[2-(2 cyclopropylmethyloxy-5-fluorophenyl)cyclopropyl]-methylamine]
Microsomal stability, % left [1]: 66% | Adverse side effects in animals (animals): no adverse side effects | Normalization of PCP-disrupted PPI ([2]; 5 mg/kg dose level): still effective | Normalization of PCP-disrupted PPI ([2]; 10 mg/kg): able to normalize PCP-disrupted PPI | Normalization of PCP-disrupted PPI (Figure 3) ([2]; 30 min pre-treatment, dose not stated in legend): effectively normalize PCP-disruption of PPI | hERG inhibition (hERG): no hERG inhibition was detected | CYP2C9 inhibition (CYP2C9): 19.6% | CYP3A4 inhibition (CYP3A4; midazolam as substrate): 21.7% | CYP3A4 inhibition (CYP3A4; testosterone as substrate): 25.1% | CYP2D6 inhibition (CYP2D6): 27.0% | Microsomal stability, % left [3]: 90.5%

C[C@H]1CNCCc2ccc(Cl)cc21 [2 (Lorcaserin), Lorcaserin]
hERG inhibition (hERG): no hERG inhibition was detected | 5-HT2B %MAX ± SEM (human 5-HT2B receptor; first screening campaign): 93% ± 1.2%

c1cc2c3c(c1)[C@H]1CCC[C@H]1CN3CCNC2 [3 (Vabicaserin), Vabicaserin]
hERG inhibition (hERG): no hERG inhibition was detected

O=C1Nc2cc(Cl)c(Cl)cc2N2CCNCC12 (centres unmarked) [4 (WAY-161503), WAY-161503]
5-HT2A %MAX ± SEM (human 5-HT2A receptor; first screening campaign): 80% ± 1.0% | 5-HT2A %MAX ± SEM (human 5-HT2A receptor; second screening campaign): 79% ± 4.5% | hERG inhibition, concentration value (hERG; quantity not given): 3.6 mM | hERG inhibition (hERG): very modest inhibition | 5-HT2B %MAX ± SEM (human 5-HT2B receptor; first screening campaign): 92% ± 1.3% | 5-HT2B %MAX ± SEM (human 5-HT2B receptor; second screening campaign): 86% ± 4.7% | 5-HT2C %MAX ± SEM ([4]; first screening campaign): 97% ± 1.6% | Selectivity 2A/2C ([4]; first screening campaign): 70 | Selectivity 2B/2C ([4]; first screening campaign): 14 | 5-HT2C %MAX ± SEM ([4]; second screening campaign): 94% ± 3.6% | Selectivity 2A/2C ([4]; second screening campaign): 40 | Selectivity 2B/2C ([4]; second screening campaign): 11

c1cc2c3c(c1)c1c(n3CCNC2)CCCC1 [5 (WAY 629), WAY 629]
5-HT2A EC50 ± SEM (human 5-HT2A receptor; first screening campaign (upper table section)): NA (NA: Emax ≤ 12%) | 5-HT2A %MAX ± SEM (human 5-HT2A receptor; first screening campaign): 1% ± 0.2% | 5-HT2A EC50 ± SEM (human 5-HT2A receptor; second screening campaign (lower table section)): NA (NA: Emax ≤ 12%) | 5-HT2A %MAX ± SEM (human 5-HT2A receptor; second screening campaign): 7% ± 2.0% | hERG inhibition (hERG): no hERG inhibition was detected | 5-HT2B EC50 ± SEM (human 5-HT2B receptor; first screening campaign (upper table section), HEK-293, calcium flux): NA (NA: Emax ≤ 12%) | 5-HT2B %MAX ± SEM (human 5-HT2B receptor; first screening campaign): 6% ± 1.3% | EC50 (human 5-HT2B receptor; read-out: 5-HT2B EC50, second screening campaign, value in μM): > 5 µM | 5-HT2B %MAX ± SEM (human 5-HT2B receptor; second screening campaign): 17% ± 2.7% | 5-HT2C %MAX ± SEM ([4]; first screening campaign): 80% ± 1.1% | 5-HT2C %MAX ± SEM ([4]; second screening campaign): 82% ± 3.5%

CN1CCN(C2=Nc3cc(Cl)ccc3Nc3ccccc32)CC1 [clozapine]
Normalization of PCP-disrupted PPI [5]: robustly normalizes PCP-disrupted PPI
